Source: ChEMBL document CHEMBL5370665, “Insight from Linker Investigations: Discovery of a Novel Phenylbenzothiazole Necroptosis Inhibitor Targeting Receptor-Interacting Protein Kinase 1 (RIPK1) from a Phenoxybenzothiazole Compound with Dual RIPK1/3 Targeting Activity” (J Med Chem, 2023)
Calls of active or inactive are those of the source. The rule behind the calls is not given here.

Key:
[1] = Cytotoxicity against human HT-29 cells assessed as reduction in cell viability incubated for 16 to 24 hrs by CellTiter-Glo Luminescent cell viability assay; assay type: toxicity, cell-based; conditions: time 16-24 hrs
HT-29 [2] = experiment: Anti-necroptic activity against human HT-29 cells assessed as inhibition of TSZ (TNFalpha, Smac mimetic and z-VAD-FMK) induced necroptosis pretreated with compound followed by TSZ stimulation for 16 to 18 hrs by CellTiter-Glo Luminescent cell viability assay; assay type: functional, cell-based
Mus musculus [3] = experiment: Anti-inflammatory activity against C57BL/6J mouse model of TNFalpha-induced systemic inflammatory response syndrome (SIRS) assessed as decrease in IL-6 level in intestine at 5 mg/kg,po 2 hrs prior to mTNFalpha and z-VAD-FMK stimulation for 8 hrs by ELISA; assay type: functional, organism-based; conditions: time 10.0 hrs
Mus musculus [4] = experiment: Anti-inflammatory activity against C57BL/6J mouse model of TNFalpha-induced systemic inflammatory response syndrome (SIRS) assessed as decrease in IL-6 level in lung at 5 mg/kg,po 2 hrs prior to mTNFalpha and z-VAD-FMK stimulation for 8 hrs by ELISA; assay type: functional, organism-based; conditions: time 10.0 hrs
Mus musculus [5] = experiment: Anti-inflammatory activity against C57BL/6J mouse model of TNFalpha-induced systemic inflammatory response syndrome (SIRS) assessed as increase in survival rate at 5 mg/kg,po 2 hrs prior to mTNFalpha and z-VAD-FMK stimulation and measured upto 24 hrs; assay type: functional; conditions: time 26 hrs
Mus musculus [6] = experiment: Anti-inflammatory activity against C57BL/6J mouse model of TNFalpha-induced systemic inflammatory response syndrome (SIRS) assessed as decrease in IL-6 level in brain at 5 mg/kg,po 2 hrs prior to mTNFalpha and z-VAD-FMK stimulation for 8 hrs by ELISA; assay type: functional, organism-based; conditions: time 10.0 hrs
Mus musculus [7] = experiment: Anti-inflammatory activity against C57BL/6J mouse model of TNFalpha-induced systemic inflammatory response syndrome (SIRS) assessed as decrease in IL-1beta level in spleen at 5 mg/kg,po 2 hrs prior to mTNFalpha and z-VAD-FMK stimulation for 8 hrs by ELISA; assay type: functional, organism-based; conditions: time 10.0 hrs
Mus musculus [8] = experiment: Anti-inflammatory activity against C57BL/6J mouse model of TNFalpha-induced systemic inflammatory response syndrome (SIRS) assessed as decrease in IL-1beta level in heart at 5 mg/kg,po 2 hrs prior to mTNFalpha and z-VAD-FMK stimulation for 8 hrs by ELISA; assay type: functional, organism-based; conditions: time 10.0 hrs
Mus musculus [9] = experiment: Anti-inflammatory activity against C57BL/6J mouse model of TNFalpha-induced systemic inflammatory response syndrome (SIRS) assessed as decrease in IL-1beta level in intestine at 5 mg/kg,po 2 hrs prior to mTNFalpha and z-VAD-FMK stimulation for 8 hrs by ELISA; assay type: functional, organism-based; conditions: time 10.0 hrs
Mus musculus [10] = experiment: Anti-inflammatory activity against C57BL/6J mouse model of TNFalpha-induced systemic inflammatory response syndrome (SIRS) assessed as decrease in IL-6 level in spleen at 5 mg/kg,po 2 hrs prior to mTNFalpha and z-VAD-FMK stimulation for 8 hrs by ELISA; assay type: functional, organism-based; conditions: time 10.0 hrs
Mus musculus [11] = experiment: Anti-inflammatory activity against C57BL/6J mouse model of TNFalpha-induced systemic inflammatory response syndrome (SIRS) assessed as increase in body temperature at 5 mg/kg,po 2 hrs prior to mTNFalpha and z-VAD-FMK stimulation and measured upto 18 hrs by electric thermometer analysis; assay type: functional, organism-based; conditions: time 20.0 hrs
Mus musculus [12] = experiment: Anti-inflammatory activity against C57BL/6J mouse model of TNFalpha-induced systemic inflammatory response syndrome (SIRS) assessed as decrease in IL-1beta level in brain at 5 mg/kg,po 2 hrs prior to mTNFalpha and z-VAD-FMK stimulation for 8 hrs by ELISA; assay type: functional, organism-based; conditions: time 10.0 hrs
Mus musculus [13] = experiment: Anti-inflammatory activity against C57BL/6J mouse model of TNFalpha-induced systemic inflammatory response syndrome (SIRS) assessed as decrease in IL-1beta level in kidney at 5 mg/kg,po 2 hrs prior to mTNFalpha and z-VAD-FMK stimulation for 8 hrs by ELISA; assay type: functional, organism-based; conditions: time 10.0 hrs
Mus musculus [14] = experiment: Anti-inflammatory activity against C57BL/6J mouse model of TNFalpha-induced systemic inflammatory response syndrome (SIRS) assessed as decrease in IL-6 level in kidney at 5 mg/kg,po 2 hrs prior to mTNFalpha and z-VAD-FMK stimulation for 8 hrs by ELISA; assay type: functional, organism-based; conditions: time 10.0 hrs
Mus musculus [15] = experiment: Anti-inflammatory activity against C57BL/6J mouse model of TNFalpha-induced systemic inflammatory response syndrome (SIRS) assessed as decrease in IL-6 level in liver at 5 mg/kg,po 2 hrs prior to mTNFalpha and z-VAD-FMK stimulation for 8 hrs by ELISA; assay type: functional, organism-based; conditions: time 10.0 hrs
Mus musculus [16] = experiment: Anti-inflammatory activity against C57BL/6J mouse model of TNFalpha-induced systemic inflammatory response syndrome (SIRS) assessed as decrease in IL-6 level in heart at 5 mg/kg,po 2 hrs prior to mTNFalpha and z-VAD-FMK stimulation for 8 hrs by ELISA; assay type: functional, organism-based; conditions: time 10.0 hrs
Mus musculus [17] = experiment: Anti-inflammatory activity against C57BL/6J mouse model of TNFalpha-induced systemic inflammatory response syndrome (SIRS) assessed as decrease in IL-1beta level in liver at 5 mg/kg,po 2 hrs prior to mTNFalpha and z-VAD-FMK stimulation for 8 hrs by ELISA; assay type: functional, organism-based; conditions: time 10.0 hrs
Mus musculus [18] = experiment: Anti-inflammatory activity against C57BL/6J mouse model of TNFalpha-induced systemic inflammatory response syndrome (SIRS) assessed as decrease in IL-1beta level in lung at 5 mg/kg,po 2 hrs prior to mTNFalpha and z-VAD-FMK stimulation for 8 hrs by ELISA; assay type: functional, organism-based; conditions: time 10.0 hrs
HT-29 [19] = experiment: Anti-apoptotic activity against human HT-29 cells assessed as inhibition of TC (human TNFalpha, cycloheximide) induced apoptosis upto 20 uM pretreated with compound followed by TC stimulation for 36 hrs by CellTiter-Glo Luminescent cell viability assay; assay type: functional, cell-based
[20] = target: Receptor-interacting serine/threonine-protein kinase 3 (Homo sapiens, UniProt Q9Y572); experiment: Binding affinity to recombinant RIPK3 (unknown origin) assessed as dissociation constant incubated for 1 hr by KINOMEscanTM assay
Chain of Receptor-interacting serine/threonine-protein kinase 3 (Q9Y572 whole entry): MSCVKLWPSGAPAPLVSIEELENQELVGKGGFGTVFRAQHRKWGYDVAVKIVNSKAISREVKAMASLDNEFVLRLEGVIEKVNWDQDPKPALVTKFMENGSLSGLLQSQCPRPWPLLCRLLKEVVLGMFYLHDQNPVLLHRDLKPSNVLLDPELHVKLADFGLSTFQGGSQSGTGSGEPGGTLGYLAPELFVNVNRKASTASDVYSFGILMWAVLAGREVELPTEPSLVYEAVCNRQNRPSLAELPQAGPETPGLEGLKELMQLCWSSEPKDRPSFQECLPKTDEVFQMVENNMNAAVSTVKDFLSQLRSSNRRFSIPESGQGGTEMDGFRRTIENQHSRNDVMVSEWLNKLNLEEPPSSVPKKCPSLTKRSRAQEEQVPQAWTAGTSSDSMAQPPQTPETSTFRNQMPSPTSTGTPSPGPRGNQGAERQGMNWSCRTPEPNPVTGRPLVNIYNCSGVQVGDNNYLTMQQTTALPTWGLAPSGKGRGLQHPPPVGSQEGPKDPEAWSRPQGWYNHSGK

[21] = target: T1, Receptor-interacting serine/threonine-protein kinase 1 (Homo sapiens, UniProt Q13546); experiment: Binding affinity to recombinant RIPK1 (unknown origin) assessed as dissociation constant incubated for 1 hr by KINOMEscanTM assay
T1 sequence (Q13546 whole entry): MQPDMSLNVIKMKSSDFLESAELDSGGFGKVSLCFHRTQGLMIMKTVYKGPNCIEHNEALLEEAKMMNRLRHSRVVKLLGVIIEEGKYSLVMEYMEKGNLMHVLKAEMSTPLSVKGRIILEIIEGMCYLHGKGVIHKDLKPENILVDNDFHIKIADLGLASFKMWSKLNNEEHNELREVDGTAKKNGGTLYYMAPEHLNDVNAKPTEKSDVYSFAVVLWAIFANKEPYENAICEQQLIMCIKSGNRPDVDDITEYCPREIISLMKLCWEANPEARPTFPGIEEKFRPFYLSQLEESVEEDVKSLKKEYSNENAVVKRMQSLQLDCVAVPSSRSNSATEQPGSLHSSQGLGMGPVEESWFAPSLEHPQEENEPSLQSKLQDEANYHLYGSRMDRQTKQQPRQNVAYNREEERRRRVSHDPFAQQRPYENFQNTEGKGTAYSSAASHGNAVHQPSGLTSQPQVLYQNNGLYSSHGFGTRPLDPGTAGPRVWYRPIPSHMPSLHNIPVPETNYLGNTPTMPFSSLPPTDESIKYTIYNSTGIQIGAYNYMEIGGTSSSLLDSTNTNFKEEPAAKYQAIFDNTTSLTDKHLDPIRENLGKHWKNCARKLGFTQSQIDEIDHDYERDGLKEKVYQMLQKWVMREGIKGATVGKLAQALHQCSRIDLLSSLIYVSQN

HT-29 [22] = experiment: Anti-necroptic activity in TSZ (TNFalpha, Smac mimetic and z-VAD-FMK) induced necroptosis in human HT-29 cells assessed as increase in cell viability preincubated for 30 mins pretreated followed by TSZ stimulation and measured after 16 hrs by MTT assay; assay type: functional, cell-based

SMILES	CC50 [1] [µM]	EC50 (HT-29 [2]) [µM]	other results
O=C(Cc1cccc(OC(F)(F)F)c1)Nc1cc(-c2ccc3sc(NC(=O)C4CC4)nc3c2)ccc1F	> 10	> 20	–
O=C(Cc1cccc(OC(F)(F)F)c1)Nc1cc(C(O)c2ccc3nc(NC(=O)C4CC4)sc3c2)ccc1F (stereo not given)	> 10	0.71	–
O=C(Cc1cccc(OC(F)(F)F)c1)Nc1cc(Cc2ccc3nc(NC(=O)C4CC4)sc3c2)ccc1F	> 10	0.31	–
O=C(Cc1cccc(OC(F)(F)F)c1)Nc1cc(C#Cc2ccc3nc(NC(=O)C4CC4)sc3c2)ccc1F	> 10	0.2	–
O=C(Cc1cccc(OC(F)(F)F)c1)Nc1cc(Oc2ccc3nc(NC(=O)C4CC4)sc3c2)ccc1F	–	–	Activity (Mus musculus [3]): inactive; Activity (Mus musculus [4]): inactive; survival at 5 mg/kg (Mus musculus [5]): 40%; Activity (Mus musculus [6]): inactive; Activity (Mus musculus [7]): inactive; Activity (Mus musculus [8]): inactive; Activity (Mus musculus [9]): inactive; Activity (Mus musculus [10]): inactive; Activity (Mus musculus [11]): inactive; Activity (Mus musculus [12]): inactive; Activity (Mus musculus [13]): inactive; Activity (Mus musculus [14]): inactive; Activity (Mus musculus [15]): inactive; Activity (Mus musculus [16]): inactive; Activity (Mus musculus [17]): inactive; Activity (Mus musculus [18]): inactive; Activity (HT-29 [19]): Active
O=C(Cc1cccc(OC(F)(F)F)c1)Nc1c(F)cccc1-c1ccc2nc(NC(=O)C3CC3)sc2c1	> 10	> 20	–
O=C(Cc1cccc(OC(F)(F)F)c1)Nc1cc(COc2ccc3nc(NC(=O)C4CC4)sc3c2)ccc1F	> 10	0.9	–
O=C(Cc1cccc(OC(F)(F)F)c1)Nc1cc(-c2cccc3sc(NC(=O)C4CC4)nc23)ccc1F	> 10	> 20	–
O=C(Cc1cccc(OC(F)(F)F)c1)Nc1cc(C(=O)c2ccc3nc(NC(=O)C4CC4)sc3c2)ccc1F	> 10	2.04	–
O=C(Cc1cccc(OC(F)(F)F)c1)Nc1cc(Nc2ccc3nc(NC(=O)C4CC4)sc3c2)ccc1F	> 10	1.24	–
O=C(Cc1cccc(OC(F)(F)F)c1)Nc1cccc(-c2ccc3nc(NC(=O)C4CC4)sc3c2)c1F	> 10	0.34	Kd [20]: > 5 µM; Kd [21]: 0.14 µM
O=C(Cc1cccc(OC(F)(F)F)c1)Nc1cc(C(=O)Nc2ccc3nc(NC(=O)C4CC4)sc3c2)ccc1F	> 10	1.26	–
O=C(Nc1cccc(C(F)(F)F)c1)Nc1cc(Oc2ccc3nc(NC(=O)C4CC4)sc3c2)ccc1F	–	–	Activity (HT-29 [19]): Active
O=C(Cc1cccc(OC(F)(F)F)c1)Nc1cc(Sc2ccc3nc(NC(=O)C4CC4)sc3c2)ccc1F	> 10	1.56	–
CN(c1ccc(F)c(NC(=O)Cc2cccc(OC(F)(F)F)c2)c1)c1ccc2nc(NC(=O)C3CC3)sc2c1	> 10	0.75	–
O=C(Cc1cccc(OC(F)(F)F)c1)Nc1cc(S(=O)(=O)c2ccc3nc(NC(=O)C4CC4)sc3c2)ccc1F	> 10	> 20	–
O=C(Cc1cccc(C(F)(F)F)c1)Nc1cc(Oc2cc3sc(NC(=O)C4CC4)nc3cc2F)ccc1F	–	–	EC50 (HT-29 [22]): 0.008 µM
O=C(Cc1cccc(OC(F)(F)F)c1)Nc1cc(-c2cccc3nc(NC(=O)C4CC4)sc23)ccc1F	> 10	> 20	–
O=C(Cc1cccc(OC(F)(F)F)c1)Nc1ccc(-c2ccc3nc(NC(=O)C4CC4)sc3c2)cc1F	> 10	> 20	–
O=C(Cc1cccc(OC(F)(F)F)c1)Nc1cc(NC(=O)c2ccc3nc(NC(=O)C4CC4)sc3c2)ccc1F	> 10	3.13	–
